# Patent US12691101B2, “Compound and method for preventing or treating of respiratory diseases comprising the same as an active ingredient” (YONSEI UNIVERSITY, UNIVERSITY - INDUSTRY FOUNDATION (UIF), priority 2019, dated 2026)
# Assays:
# [1] = test system: AN01, CFTR and ENaC ion channel activity; test: Short circuit current in HNE cells; assay type: cell-based, human; conditions: long-term treatment (48 hours)
# Description: (A) Representative tracing of intracellular pH of treated (grey line) and IL-4 (10 ng/ml) treated HNE cells. Pendrin was inhibited by F56 ([…]). (B) The mRNA expression level of pendrin was determined at the indicated time after treatment of F56 ([…]) by real-time quantitative PCR in IL-4-treated HBE cells (mean±S.E., n=3). (C) The Cl^−/HCO3^− exchange activity was measured in IL-4-treated HBE cells. F56 was pretreated for 5 minutes. (D, E) Short circuit current record of HNE cells. Representative tracing showing the effect of F56 on the ENaC, CFTR and CaCC channel activity. After exposing to F56 ([…]) for 48 hours, in presence or absence of IL-4, the channel activity was measured. Amiloride (100 μM), forskolin (20 μM, CFTRinh-172 (10 μM) and ATP (100 μM) were added to the apical bath. (F) The AN01, CFTR and ENaC mRNA expression level was determined at the indicated time after treatment of F56 ([…]) by real-time quantitative PCR in IL-4-treated HNE cells (mean±S.E., n=5) * P<0.05, ** P<0.01, *** P<0.001.
# Snapwell inserts containing the primary culture of AN01- and CFTR-expressing FRT and human nasal cavity epithelium (HNE) cells were equipped on Ussing chamber (Physiologic Instruments, San Diego, CA, USA). […] Using Labchart Pro 7 (AD Instruments), data were recorded and analyzed. […]
# [2] = test system: LPS-induced acute lung injury mice; test: LPS-induced ALI in mouse model; assay type: in vivo
# Description: Mice were slightly anesthetized by isoflurane inhalation (Abbott Laboratory), and were maintained in a supine position with the head raised. LPS (Escherichia coli, 0111: B4, Sigma) (10 mg/kg) in 50 μL PBS was administered by intranasal (i.n.) inhalation. As the control group, 50 μL sterile PBS was intranasally provided. With the aid of a microsyringe from Hamilton, the administration solution was gradually released into the nostrils. In case of the pretreatment model, F56 (10 mg/kg) in 50 μL DMSO was intraperitoneally (i.p) administered before 1 hour of LPS inhalation. In case of the post-treatment model, two doses of F56 were administered at 6 hours and 12 hours after LPS inhalation. The mice of the pretreatment group were euthanized and in 48 hours after LPS inhalation, the lung was harvested. In the post-treatment model, euthanasia and sample collection occurred 24 hours after LPS administration. For SCN^− experiment, after F56 treatment, […]
# All mice were euthanized with fetal excessive amount of ketamine and xylazine. BALF was obtained by tracheal cannula using 1 mL sterile saline solution. BALF was centrifuged (4° C., 3000 rpm, 10 minutes) and the supernatant was stored at −80° C. for an additional analysis. The cell pellet was recomposed in 100 μL PBS, and used for the number of cells and cytospin sample. The total number of cells of each sample was determined using a hemocytometer (Marienfield), according to the manufacturer's protocol. Each sample in a 90 μL split amount was transferred to a slide chamber, and then the slide was inserted into the cytospin with outward facing. The slide was centrifuged at 800 rpm for 5 minutes, and then removed from the cell centrifuge, and dried before staining. The cytospin was prepared with a cell centrifuge (Shandon Cytospin 4 cytocentrifuge, Thermo Scientific, Waltham, MA, USA) and stained with Diff-Quik Stain Set (Dade Behring, Newark, DE, USA) to evaluate inflammation. The protein concentration of BAL supernatant was measured using BCA analysis (Thermo Fischer Scientific). 2 microliters of each sample and 198 μL of a working reagent were pipetted in a microplate well and completely mixed in a plate shaker for […]. After culturing at 37° C. for 30 minutes, the plate was cooled and the absorbance was read at 562 nm in a spectrophotometer.
# The right lung was isolated and the pulmonary vasculature structure was flushed with saline solution under low pressure and stored at −80° C. before protein extraction. The left lung was inflated via tracheostomy with low-meting agarose (4%) in PBS at 25 cm H2O pressure until the pleural margin was sharpened. Then, the lung was excised and fixed overnight in 10% formaldehyde in PBS and embedded in paraffin for 5 μm sections. The left lung section was stained with H&E and subjectively evaluated with an optical microscope. Histopathology was reviewed in a blind method by two qualified researchers. Five easily identifiable pathological processes were scored using the weighted scale presented in the official ATS workshop report. Lung sections were processed using anti-rabbit SLC26A4 (ab98091, abcam) antibody for immunohistochemistry.
# In the lung lysates, the level of macrophage inflammatory protein (MIP-2), interleukin-1β (IL-1β […] and tumor necrosis factor α (TNF-α) was measured using an ELISA kit (Millipore), according to the manufacturer's instructions.
# The lung tissue was harvested and dissolved in a homogenization buffer (PRO-PREP™ extraction solution, iNtRON Biotechnology). The sample was centrifuged at 4° C. for 30 minutes at 13000 g. The supernatant protein concentration was determined by BCA analysis (Thermo Fisher Scientific). The same amount of protein was separated by SDS/PAGE and transferred to a nitrocellulose membrane. […]
# [3] = post-treatment 10 mg/kg i.p. at 6 and 12 hours after LPS, 24 hours after LPS
# [4] = pretreatment 10 mg/kg i.p. 1 hour before LPS, 48 hours after LPS, versus vehicle
smiles,measurement,setting,value
"CC(C)(C)c1ccc(C2=NC(=Cc3cccs3)C(=O)O2)cc1 [F56, 2-(4-(tert-butyl)phenyl)-4-(thiophen-2-ylmethylene)oxazol-5(4H)-one]","ion channel activity of AN01, CFTR and ENaC",[1],did not change
same,"level of pro-inflammatory cytokine in lung lysates (IL-1β, MIP-2, IL-6, TNF-α)",[2]; F56 pretreated versus vehicle (DMSO) after LPS,reduced
same,Phospho-Iκ expression in lung lysates,[2]; F56 treatment before LPS,significantly reduced
same,BALF protein concentration,[2]; [3],considerably reduced
same,BALF total cell number,[2]; [3],considerably reduced
same,lung injury score,[2]; [3],considerably reduced
same,BAL protein concentration level,[2]; [4],reduced
same,BAL total cell number,[2]; [4],reduced
same,lung injury score,[2]; [4],significantly reduced
